Ki data for 28 compounds are collected here from patent US10988477B2 (Merck Patent GmbH, priority 2018, dated 2021).

Chain of GCN2 kinase (Q9P2K8 whole entry): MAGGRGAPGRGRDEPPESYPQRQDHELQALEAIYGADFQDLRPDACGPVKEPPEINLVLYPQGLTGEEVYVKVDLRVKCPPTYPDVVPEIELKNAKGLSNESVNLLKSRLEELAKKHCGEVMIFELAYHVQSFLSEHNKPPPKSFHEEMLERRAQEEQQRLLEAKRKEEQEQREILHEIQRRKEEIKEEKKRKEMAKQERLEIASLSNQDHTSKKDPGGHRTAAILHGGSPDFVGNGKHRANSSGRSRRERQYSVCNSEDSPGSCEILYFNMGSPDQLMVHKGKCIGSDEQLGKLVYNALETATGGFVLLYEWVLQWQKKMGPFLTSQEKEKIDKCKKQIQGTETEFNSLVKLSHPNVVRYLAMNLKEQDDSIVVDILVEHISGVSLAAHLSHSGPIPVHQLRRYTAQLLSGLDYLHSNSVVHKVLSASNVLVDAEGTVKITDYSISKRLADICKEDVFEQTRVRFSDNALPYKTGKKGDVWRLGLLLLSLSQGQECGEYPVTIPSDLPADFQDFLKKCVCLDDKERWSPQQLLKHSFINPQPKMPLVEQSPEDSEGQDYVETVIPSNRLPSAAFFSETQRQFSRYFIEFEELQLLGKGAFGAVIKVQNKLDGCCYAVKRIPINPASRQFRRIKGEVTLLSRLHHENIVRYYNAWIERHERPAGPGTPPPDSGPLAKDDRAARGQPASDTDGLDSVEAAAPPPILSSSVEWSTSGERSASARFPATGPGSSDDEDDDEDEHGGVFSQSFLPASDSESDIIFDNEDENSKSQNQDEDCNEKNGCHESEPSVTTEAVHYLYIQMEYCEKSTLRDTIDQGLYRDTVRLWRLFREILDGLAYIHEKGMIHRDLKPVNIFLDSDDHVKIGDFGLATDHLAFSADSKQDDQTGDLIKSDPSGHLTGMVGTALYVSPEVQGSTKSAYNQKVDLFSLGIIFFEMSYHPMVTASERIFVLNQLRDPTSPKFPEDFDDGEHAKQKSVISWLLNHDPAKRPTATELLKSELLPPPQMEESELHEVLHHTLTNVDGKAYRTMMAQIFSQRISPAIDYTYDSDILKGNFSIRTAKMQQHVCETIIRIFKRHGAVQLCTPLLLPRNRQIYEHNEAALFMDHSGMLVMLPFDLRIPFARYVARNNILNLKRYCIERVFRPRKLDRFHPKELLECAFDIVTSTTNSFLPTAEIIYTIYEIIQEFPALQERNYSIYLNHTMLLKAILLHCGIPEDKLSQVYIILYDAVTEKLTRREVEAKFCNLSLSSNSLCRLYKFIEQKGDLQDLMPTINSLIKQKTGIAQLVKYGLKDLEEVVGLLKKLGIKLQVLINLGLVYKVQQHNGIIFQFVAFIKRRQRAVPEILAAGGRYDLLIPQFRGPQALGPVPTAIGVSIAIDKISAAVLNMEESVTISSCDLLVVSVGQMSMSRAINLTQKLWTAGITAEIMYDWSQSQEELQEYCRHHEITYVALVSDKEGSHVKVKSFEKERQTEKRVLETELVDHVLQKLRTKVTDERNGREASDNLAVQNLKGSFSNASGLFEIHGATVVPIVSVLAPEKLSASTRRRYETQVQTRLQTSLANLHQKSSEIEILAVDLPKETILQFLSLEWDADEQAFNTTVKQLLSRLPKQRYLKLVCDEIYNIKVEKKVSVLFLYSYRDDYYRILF

The first experiment concerns the target GCN2 kinase (Homo sapiens, UniProt Q9P2K8). Nature of the experiment: GCN2 enzyme inhibition assay (Transcreener ADP2 fluorescence polarization). It is filed as biochemical. As to conditions: Enzyme activity for compounds of Formula IV; Ki(app), 280 μM ATP, 25° C. The protocol:
Compounds were screened for their ability to inhibit GCN2 kinase activity using a Transcreener® ADP^2 fluorescence polarization assay that detects ADP levels (BellBrook Labs, WI). Assays were carried out in a buffer consisting of 25 mM Tris-HCl (pH 7.5), 50 mM NaCl, 10 mM MgCl2 and 1 mM DTT. Final substrate concentrations were 280 μM ATP and 200 μM peptidic substrate ([…]-OH [(RS)7], Bachem, Switzerland). Assays were carried out at 25° C. in the presence of a (typical) final concentration of 4 nM GCN2 kinase. An assay buffer containing GCN2 kinase and (RS)7 was prepared. 4.7 μL of this stock solution was placed per well of a black, low volume, 384-well microtitre plate (e.g. catalogue number 3676, Corning Inc., NY). To this was added […] of DMSO containing serial dilutions of the test compound (typical final concentrations of test compound were 0 to 8 μM). The plate was incubated for 10 minutes at 25° C. prior to the addition of 4.7 μL of ATP stock buffer to initiate the enzyme reaction. The reaction was allowed to proceed for 1 hour at 25° C., prior to the addition of 10 μL detection buffer (consisting of appropriate concentrations of ADP^2 antibody and ADP Alexa633 tracer in 1× stop and detect buffer as supplied by BellBrook Labs). […] Percentage inhibition of enzyme activity was then calculated at each compound dose. IC50 and Ki(app) (using known assay and kinetic parameters) values were calculated from percentage inhibition data using a non-linear, tight-binding algorithm. All data analysis was undertaken using the Screener® software package (Genedata, Switzerland).
A general note: In fluorescence polarisation assays a small probe gives low polarisation when free and higher when bound to something large.
`FC(F)(F)c1cn2c(-c3ccnc(N4CCOC(c5cn[nH]c5)C4)n3)cnc2cn1` (single isomer, unassigned) [IV-185, 2-(1H-Pyrazol-4-yl)-4-(4-(6-(trifluoromethyl)imidazo[1,2-a]pyrazin-3-yl)pyrimidin-2-yl)morpholine] showed a Ki of 10 to 100 nM.

Consider `FC(F)(F)c1cn2c(-c3ccnc(N4CCOC(c5cn[nH]c5)C4)n3)cnc2cn1` (single isomer, unassigned) [IV-186, 2-(1H-Pyrazol-4-yl)-4-(4-(6-(trifluoromethyl)imidazo[1,2-a]pyrazin-3-yl)pyrimidin-2-yl)morpholine], for which the Ki is < 10 nM.

As for `CC1CN(c2ccnc(-c3cnc4cnc(C(F)(F)F)cn34)n2)C(C)C(c2cn[nH]c2)N1` (single isomer, unassigned) [IV-223, 3-(4-(2,5-Dimethyl-3-(1H-pyrazol-4-yl)piperazin-1-yl)pyrimidin-2-yl)-6-(trifluoromethyl)imidazo[1,2-a]pyrazine], the Ki lay within 100 to 1000 nM.

Turning to `CC1C(c2cn[nH]c2)NCCN1c1ccnc(-c2cnc3cnc(Cl)cn23)n1` (single isomer, unassigned) [IV-229, 6-Chloro-3-(4-(2-methyl-3-(1H-pyrazol-4-yl)piperazin-1-yl)pyrimidin-2-yl)imidazo[1,2-a]pyrazine], the Ki lay within 100 to 1000 nM.

`FC(F)(F)c1cn2c(-c3nccc(N4CCNC(c5cn[nH]c5)C4)n3)cnc2cn1` (single isomer, unassigned) [IV-231, 3-(4-(3-(1H-Pyrazol-4-yl)piperazin-1-yl)pyrimidin-2-yl)-6-(trifluoromethyl)imidazo[1,2-a]pyrazine] registered a Ki of 100 to 1000 nM.

As for `FC(F)(F)c1cn2c(-c3nccc(N4CCNC(c5cn[nH]c5)C4)n3)cnc2cn1` (single isomer, unassigned) [IV-232, 3-(4-(3-(1H-Pyrazol-4-yl)piperazin-1-yl)pyrimidin-2-yl)-6-(trifluoromethyl)imidazo[1,2-a]pyrazine], the Ki was 10 to 100 nM.

Turning to `Clc1cn2c(-c3nccc(N4CCNC(c5cn[nH]c5)C4)n3)cnc2cn1` (single isomer, unassigned) [IV-237, 3-(4-(3-(1H-Pyrazol-4-yl)piperazin-1-yl)pyrimidin-2-yl)-6-chloroimidazo[1,2-a]pyrazine], the Ki lay in the range of 100 to 1000 nM.

Compound `Clc1cn2c(-c3nccc(N4CCNC(c5cn[nH]c5)C4)n3)cnc2cn1` (single isomer, unassigned) [IV-238, 3-(4-(3-(1H-Pyrazol-4-yl)piperazin-1-yl)pyrimidin-2-yl)-6-chloroimidazo[1,2-a]pyrazine] yielded a Ki of 10 to 100 nM.

On to `CC1C(c2cn[nH]c2)OCCN1c1ccnc(-c2cnc3cnc(Cl)cn23)n1` (single isomer, unassigned) [IV-244, 4-(2-(6-Chloroimidazo[1,2-a]pyrazin-3-yl)pyrimidin-4-yl)-3-methyl-2-(1H-pyrazol-4-yl)morpholine], for which the Ki is 100 to 1000 nM.

Regarding `CC1CN(c2ccnc(-c3cnc4cnc(Cl)cn34)n2)C(C)C(c2cn[nH]c2)N1` (single isomer, unassigned) [IV-246, 6-Chloro-3-(4-(2,5-dimethyl-3-(1H-pyrazol-4-yl)piperazin-1-yl)pyrimidin-2-yl)imidazo[1,2-a]pyrazine], the Ki was 100 to 1000 nM.

For `NC(=O)c1cn2c(-c3nccc(N4CCN5C(=O)CCCC5C4)n3)cnc2cn1` (single isomer, unassigned) [IV-273, 3-(4-(6-Oxooctahydro-2H-pyrido[1,2-a]pyrazin-2-yl)pyrimidin-2-yl)imidazo[1,2-a]pyrazine-6-carboxamide], the Ki lay within 100 to 1000 nM.

With `NC(=O)c1cn2c(-c3nccc(N4CCN5C(=O)CCCC5C4)n3)cnc2cn1` (single isomer, unassigned) [IV-274, 3-(4-(6-Oxooctahydro-2H-pyrido[1,2-a]pyrazin-2-yl)pyrimidin-2-yl)imidazo[1,2-a]pyrazine-6-carboxamide], the Ki lay in the range of 10 to 100 nM.

Compound `C[C@H]1CN(c2cccc(-c3cnc4cnc(C(F)F)cn34)n2)C[C@@H](CNS(C)(=O)=O)C1(F)F` (single isomer, unassigned) [IV-275] yielded a Ki of 100 to 1000 nM.

On to `Cc1[nH]ncc1C1NC(C)CN(c2ccnc(-c3cnc4cnc(Cl)cn34)n2)C1C` (single isomer, unassigned) [IV-282, 6-Chloro-3-(4-(2,5-dimethyl-3-(5-methyl-1H-pyrazol-4-yl)piperazin-1-yl)pyrimidin-2-yl)imidazo[1,2-a]pyrazine], for which the Ki is < 10 nM.

Regarding `Cc1[nH]ncc1C1NC(C)CN(c2ccnc(-c3cnc4cnc(Cl)cn34)n2)C1C` (single isomer, unassigned) [IV-283, 6-Chloro-3-(4-(2,5-dimethyl-3-(5-methyl-1H-pyrazol-4-yl)piperazin-1-yl)pyrimidin-2-yl)imidazo[1,2-a]pyrazine], the Ki was 100 to 1000 nM.

`CC1CN(c2ccnc(-c3cnc4cnc(Br)cn34)n2)C(C)C(c2cn[nH]c2)N1` (single isomer, unassigned) [IV-287, 6-Bromo-3-(4-(2,5-dimethyl-3-(1H-pyrazol-4-yl)piperazin-1-yl)pyrimidin-2-yl)imidazo[1,2-a]pyrazine]: the Ki fell in the range of 10 to 100 nM.

Turning to `CC1C(c2cn[nH]c2)OCCN1c1ccnc(-c2cnc3cnc(C#N)cn23)n1` (single isomer, unassigned) [IV-290, 3-(4-(3-Methyl-2-(1H-pyrazol-4-yl)morpholino)pyrimidin-2-yl)imidazo[1,2-a]pyrazine-6-carbonitrile], the Ki was < 10 nM.

In turn, `CC1C(c2cn[nH]c2)OCCN1c1ccnc(-c2cnc3cnc(C#N)cn23)n1` (single isomer, unassigned) [IV-291, 3-(4-(3-Methyl-2-(1H-pyrazol-4-yl)morpholino)pyrimidin-2-yl)imidazo[1,2-a]pyrazine-6-carbonitrile] showed a Ki of 100 to 1000 nM.

`O=C1CCCC2CN(c3ccnc(-c4cnc5cnc(Cl)cn45)n3)CCN12` (single isomer, unassigned) [IV-293, 2-(2-(6-Chloroimidazo[1,2-a]pyrazin-3-yl)pyrimidin-4-yl)octahydro-6H-pyrido[1,2-a]pyrazin-6-one] yielded a Ki of 10 to 100 nM.

The compound `O=C1CCCC2CN(c3ccnc(-c4cnc5cnc(Cl)cn45)n3)CCN12` (single isomer, unassigned) [IV-294, 2-(2-(6-Chloroimidazo[1,2-a]pyrazin-3-yl)pyrimidin-4-yl)octahydro-6H-pyrido[1,2-a]pyrazin-6-one] had a Ki of 10 to 100 nM.

Compound `CCN1C(C)CN(c2ccnc(-c3cnc4cnc(C(F)(F)F)cn34)n2)C(C)C1c1cn[nH]c1` (single isomer, unassigned) [IV-295, 3-(4-(4-Ethyl-2,5-dimethyl-3-(1H-pyrazol-4-yl)piperazin-1-yl)pyrimidin-2-yl)-6-(trifluoromethyl)imidazo[1,2-a]pyrazine] showed a Ki of 100 to 1000 nM.

As to `CCN1C(C)CN(c2ccnc(-c3cnc4cnc(C(F)(F)F)cn34)n2)C(C)C1c1cn[nH]c1` (single isomer, unassigned) [IV-296, 3-(4-(4-Ethyl-2,5-dimethyl-3-(1H-pyrazol-4-yl)piperazin-1-yl)pyrimidin-2-yl)-6-(trifluoromethyl)imidazo[1,2-a]pyrazine], the Ki was < 10 nM.

In turn, `CC1CC(c2cn[nH]c2)C(C)N(c2ccnc(-c3cnc4cnc(C(F)(F)F)cn34)n2)C1` (single isomer, unassigned) [IV-310] returned a Ki of 10 to 100 nM.

Staying with this experiment, now noted: compounds of Formula II; 280 μM ATP, 4 nM GCN2 kinase.
In the case of `CC1CC(N=S(C)(=O)C2CC2)CN(c2cc(-c3cnc4ccc(C(F)F)nn34)ncn2)C1` (single isomer, unassigned) [II-647, Cyclopropyl((1-(6-(6-(difluoromethyl)imidazo[1,2-b]pyridazin-3-yl)pyrimidin-4-yl)-5-methylpiperidin-3-yl)imino)(methyl)-λ^6-sulfanone], the Ki fell in the range of 10 to 1000 nM.

Compound `CCC1CC(N=S(C)(C)=O)CN(c2cc(-c3cnc4ccc(C(F)F)nn34)ncn2)C1` (single isomer, unassigned) [II-651, ((1-(6-(6-(Difluoromethyl)imidazo[1,2-b]pyridazin-3-yl)pyrimidin-4-yl)-5-ethylpiperidin-3-yl)imino)dimethyl-λ^6-sulfanone] returned a Ki of 10 to 1000 nM.

For the compound `CC1CN(c2cc(-c3cnc4ccc(C(F)F)nn34)ncn2)C(C)C(c2cn[nH]c2)N1` (single isomer, unassigned) [II-653, 6-(Difluoromethyl)-3-(6-(2,5-dimethyl-3-(1H-pyrazol-4-yl)piperazin-1-yl)pyrimidin-4-yl)imidazo[1,2-b]pyridazine], the Ki is 10 to 1000 nM.

In the case of `CC1CC(C(N)=O)C(C)N(c2cc(-c3cnc4ccc(C(F)(F)F)nn34)ncn2)C1` (single isomer, unassigned) [II-718, 2,5-Dimethyl-1-[6-[6-(trifluoromethyl)imidazo[1,2-b]pyridazin-3-yl]pyrimidin-4-yl]piperidine-3-carboxamide], the Ki fell in the range of 10 to 1000 nM.

`CC1CC(N=S(C)(C)=O)CN(c2cc(-c3cnc4ccc(C(F)F)nn34)c(F)cn2)C1` (single isomer, unassigned) [II-722, ((1-(4-(6-(Difluoromethyl)imidazo[1,2-b]pyridazin-3-yl)-5-fluoropyridin-2-yl)-5-methylpiperidin-3-yl)imino)dimethyl-λ^6-sulfanone]: the Ki was 10 to 1000 nM.
